The text below walks through data of paper PMC7313430, “Heme-Dependent ER Stress Apoptosis: A Mechanism for the Selective Toxicity of the Dihydroartemisinin, NSC735847, in Colorectal Cancer Cells” (Frontiers in Oncology, 2020).

One experiment concerns HCT116 cells. Nature of the experiment: MTS cell viability assay, colon cancer cells HCT116. It is filed as cell-based, human. As to the method: (§1) The human colon cancer cell lines HT29 and HCT116 were cultured in McCoy's 5A medium (Sigma Aldrich, St. Louis, MO) containing 10% heat-inactivated fetal bovine serum (FBS), penicillin (100 units/ml), and streptomycin (100 μg/ml). The non-tumorigenic colon cell line, FHC, was cultured in DMEM: F12 (1:1) medium supplemented with 10% heat inactivated FBS, 25 mM HEPES (Thermo Fisher Scientific Inc., IL), 10 ng/ml cholera toxin (Sigma Aldrich, St. Louis, MO), 0.005 mg/ml insulin (Thermo Fisher Scientific Inc., IL), 0.005 mg/ml, transferrin (Sigma Aldrich, St. Louis, MO), 100 ng/ml hydrocortisone (Sigma Aldrich, St. Louis, MO), 20 ng/mL human recombinant epidermal growth factor (Thermo Fisher Scientific Inc., IL), 100 units/ml penicillin, and 100 μg/ml streptomycin.
(§2) Cells were cultured in 96-well-plates for 48 h before treatment. Serum-free media containing different agents was added to the cells at the concentration and time period described in the figure legend. MTS reagent (Promega, Madison, WI) was then added to each well and the absorbance was measured at 495 nm as directed by the manufacturer. In the presence of MTS reagent, the absorbance reading is proportional to the number of viable cells. The half-maximal inhibitory concentration (IC50) of the tested compounds is the concentration that reduces the viability of cells by 50%. IC50 was calculated after 24 h of treatment ([30], [31]) as described previously ([32]–[34]) from dose-response curves (log drug concentration vs. percentage viability from untreated cells) generated by non-linear regression analysis with GraphPad Prism 5 software (GraphPad Software, San Diego, California).

Experiment [1] relates to ferritin H mRNA in HT29 cells. Nature of the experiment: Ferritin mRNA qRT-PCR. To be noted: HT29, 10 μM, 4, 8 and 16 h. It counts as cell-based, human. As for the experimental part:
Total RNA was extracted from HT29 cells by utilizing TRI reagent (Sigma Aldrich, St. Louis, MO, USA) and then it was purified with the Direct-zol RNA MiniPrep Kit (Zymo Research, Irvine, CA, USA). cDNA was synthesized from purified RNA by using the iScript cDNA Synthesis Kit (Bio-Rad laboratories, Hercules, CA, USA). qRT-PCR was performed by using the iTaq Universal SYBR Green Supermix (Bio-Rad laboratories, Hercules, CA, USA) with the BioRad CFX96 thermocycler (Bio-Rad laboratories, Hercules, CA, USA). The specific primer pair sequences were 5′-[…]-3′ and 5′-[…]-3′ for β-actin; and 5′-[…]-3′ and 5′-[…]-3′ for ferritin H (heavy-chain). Cycle threshold values were normalized to the internal beta-actin control. The ratio of fold change was calculated using the Pfaffl method ([37]).
In general terms: Real-time PCR tracks product formation cycle by cycle.

In experiment [2] the test system is FHC cells. Nature of the experiment: MTS cell viability assay, non-tumorigenic colon cells. It is filed as cell-based. To be noted: Homo sapiens, 24 h treatment. As for the experimental part:
as §1, §2

In experiment [3] the test system is FHC cells. Nature of the experiment: TUNEL assay in FHC. It counts as cell-based, human. To be noted: 5 or 10 μM, 16 h. As for the experimental part:
HT29, HCT116, and FHC cells were cultured in chamber slides and treated with 5 μM NSC735847, 10 μM NSC735847, or vehicle (0.1% DMSO). The cells were then washed with PBS and fixed in 4% paraformaldehyde before detection of double stranded DNA breaks that are characteristic of apoptosis. Terminal deoxynucleotidyl transferase dUTP nick end labeling (TUNEL) assays were performed as described by the manufacturer (in situ Cell Death Detection Kit; Roche; Indianapolis, IN). Briefly, fixed cells were incubated in permeabilization solution (0.1% Triton X-100 in 0.1% sodium citrate) for 2 min on ice. The slides were rinsed twice with PBS, 50 μL TUNEL reaction mixture was added, and then the samples were incubated for 1 h at 37°C in the dark. The slides were overlayed with antifade mounting medium containing DAPI and then visualized using a Zeiss LSM 700 confocal microscope system (Carl Zeiss Microscopy, LLC, White Plains, NY).

Experiment [4] has as its system intracellular iron in HT29 cells. Nature of the experiment: Intracellular iron measurement (QuantiChrom kit). It counts as cell-based, human. To be noted: HT29, 10 μM, 4, 8 and 16 h. As for the experimental part:
HT29 cells were plated in 100 mm tissue culture plates for 48 h and then the cells were treated as indicated in the text. The cells were washed twice with PBS and then 100 μl triton lysis buffer (without EDTA) was added. The intracellular iron concentrations were determined using the QuantiChrom iron assay kit (BioAssay Systems; #ab83366) following the manufacturer's instructions. Briefly, iron standards of different concentrations were prepared by diluting the iron standard provided with the kit with distilled water. The diluted standards (50 μL) and sample cell lysates (50 μL) were transferred into a clear flat bottom 96-well-plate. Working reagent was prepared by mixing 20 volumes of reagent A, 1 volume reagent B and 1 volume reagent C provided with the kit. The working reagent (200 μL) was then added to the standard and sample wells. After mixing, the plate was incubated 40 min at room temperature and then the absorbance was measured at 590 nm. The iron concentration in each sample was calculated as described in the kit protocol.

The test system of experiment [5] is caspase 3/7 activity in HT29 cells. Nature of the experiment: Caspase-Glo 3/7 activity assay in HT29. It is filed as cell-based, human. To be noted: 16 h, 1.25-10 μM. As for the experimental part: The cells were plated in white-walled 96-well-plates and then they were cultured at 37°C for 48 h. Serum-free culture medium containing the appropriate concentration of different agents was added to the cells for the indicated period of time. Caspase-Glo 3/7 reagent (Promega, Madison, WI) was added to each well and luminescence was detected as directed by the manufacturer. The Caspase-Glo 3/7 kit measures the activity of the executioner caspases 3 and 7 using the luminogenic substrate (Z-DEVD-aminoluciferin) as substrate.

For `CC1CCC2C(C)C(OCC(COC3OC4OC5(C)CCC6C(C)CCC(C3C)C46OO5)=NO)OC3OC4(C)CCC1C32OO4` (stereo not shown) [compound (3)], the IC50 was 11.8 µM in the experiment on HCT116 cells (Homo sapiens, HCT-116, MTS viability, 24 h treatment) and over 25 µM in the experiment with FHC cells [2]. In addition, the “cell death / survival of HCT116 cells” value in the experiment with HCT116 cells (MTS, 24 h, single agents or combinations) was “induced death in a concentration-dependent manner”. Besides, the “ferritin mRNA expression” value in experiment [1] is given as “upregulated the expression of ferritin mRNA”. Also, the “TUNEL positive cells in FHC” value with FHC cells [3] is “absent”. The cellular free iron result in experiment [4] is on record as “time-dependent increase in cellular free iron”. Further, the “caspase 3/7 activity in HT-29” value in experiment [5] is recorded as “significantly increased”.

By IC50 is commonly meant the concentration needed to halve the response being measured.
